Source: patent publication US8741262B2, “Targeted radiotherapy” (Katholieke Universiteit Leuven, K.U. Leuven R&D, priority 2007, dated 2014)

System: liver radiation-induced fibrosarcoma (RIF-1), RFA-induced necrosis
Assay: Hypericin distribution in liver RIF-1 tumor in mice after radiofrequency ablation, fluoromacroscopy and fluorescence microscopy
Type: in vivo
Details: 5 mg/kg iv 24 h after RFA, 3 d after injection
Method: The rectangular frame in A and B indicates where micrographs (C and D) were approximately focused. […] Thus, the prolonged retention of hypericin in necrosis matches well the radiation half life of iodine-131 (8 d) or yttrium-90 (64 h), which offers an ideal condition for the present adjuvant anti-cancer radiotherapy with combined use of a small molecule therapeutically labeled NACCs featuring multi-millimeter irradiation penetration (max. range of beta particles in tissue is 2.4 mm for iodine-131 and 12 mm for yttrium-90).

Cc1cc(O)c2c(=O)c3c(O)cc(O)c4c5c(O)cc(O)c6c(=O)c7c(O)cc(C)c8c1c2c(c34)c(c78)c65 [hypericin]
Fluorescence microscopy of necrotic tumor regions: can still be detected in RFA-induced necrotic tumor regions (NT) | Tissue distribution by UV light fluoromacroscopy: almost completely cleared from viable liver (VL) and viable tumor (VT), but is retained only in necrotic tumor (NT) and necrotic liver (NL)
